Key:
plasma protein = experiment: Plasma protein binding (mouse); format: in vitro ADME
Description: A compound solution (1 mM in DMSO) (5 μL), according to the invention is added to the respective plasma matrices of rat or human or mouse (1 ml).
Add 150 ul of phosphate buffer to receiving side of the dialysis well. […] Precipitate with Acetonitrile and dilute samples prior to analysis in 1.5 ml polypropylene tubes. Remove 50 μl from the sample side of dialysis well and add 50 μl of phosphate buffer +300 μl of acetonitrile containing IS. Remove 50 μl from the buffer side of the dialysis well and add 50 μl of respective matrix plasma +300 μl of ACN. Then vortexed and centrifuged for 5 min, and supernatant is taken and injected into LCMS.
Different test concentration ranging from 0.1 μM to 20 μM are made in methanol:water (90:10). Test solutions are added to the premixed matrix containing plasma:phosphate buffer (50:50). Precipitate with 300 μl of ice cold acetonitrile containing IS, vortexes and centrifuged. Supernatant is taken and injected into LCMS. Percentage of plasma protein binding was obtained via Equation(2):% Fraction unbound=(concentration on the buffer side/concentration on the sample side)*100 Table-7

[1] = Intravenous and oral pharmacokinetics in Wistar rats; format: in vivo; conditions: for plasma exposure (AUC, C max) as compared to Rivaroxaban: Wistar rats, IV 1 mg/kg and PO 10 mg/kg
Description: On the day before administration of the substance, a catheter for obtaining blood is implanted in the jugular vein of the experimental animals (male Wistar rats, body weight 200-250 g) under Isofluran® anesthesia.
Blood samples (8-12 time points) are taken through the catheter sequentially over the course of 24 h after administration of the substance. The administration volume is 10 ml/kg for oral and 1 ml/kg for IV in male Wistar rats. Intravenous administration is via a formulation of 2% N—N Dimethyl acetamide/ethanol 10%/PEG400 (30%)/water for IV injection (58%) and via Tween80/PEG400/sterile water in the case of oral administration. Removal of blood is after 0.08, 0.25, 0.5, 1, 2, 3, 4, 6, 8 and 12 hours in the case of IV and, blood withdrawn after 0.25, 0.5, 1.0, 2, 3, 4, 6, 8 and 12 hours for oral administration.
Plasma is obtained by centrifuging the samples in heparinized tubes. IS containing Acetonitrile is added to a defined plasma volume per time point to precipitate proteins. After centrifugation, compound formula (B) and, where appropriate, known cleavage products of the compound formula (B) in the supernatant are determined quantitatively using a suitable LC/MS-MS method.
The measured plasma concentrations are used to calculate pharmacokinetic parameters of the test substance and of the active ingredient compound (A) liberated there from, such as AUC, Cmax, T½ (half-life) and CL (clearance).
Acetonitrile containing IS is added to the study samples, calibration samples and QCs, and the protein is precipitated using acetonitrile. Vortexed and centrifuged at 4000 rpm and the supernatant is injected by LC-MS/MS (API 4000, AB Sciex). Chromatographic separation is carried out on an Shimadzu UFLC. The injection volume is 10 μl. The separation column used is a Phenomenex Gemini NX 4.6×5μ. 100 mm, adjusted to a temperature of 30° C. […]
The plasma concentration/time plots determined are used to calculate the pharmacokinetic parameters such as AUC, Cmax, MRT (mean residence time), t½ (half life) and CL (clearance) employing the validated pharmacokinetic calculation programs.

[2] = Intravenous and oral excretion profile in Wistar rats; format: in vivo
Description: On the day before administration of the substance, a catheter for obtaining blood is implanted in the jugular vein of the experimental animals (male Wistar rats, body weight 200-250 g) under Isoflurane. anesthesia.
Urine and faeces are taken collected from metabolic cages over the course of 144 h after administration of the substance. The administration volume is 10 ml/kg for oral and 1 ml/kg for IV in male Wistar rats. Intravenous administration is via a formulation of 2% N—N Dimethyl acetamide/ethanol 10%/PEG400 (30%)/water for IV injection (58%) and via Tween80/PEG400/sterile water in the case of oral administration. Urine and faeces collection is 0-4, 4-8, 8-24, 24-48, 48-72, 72-96, 96-120, 120-144 in the case of IV and for oral administration.
Urine and faeces was processed and IS containing Acetonitrile is added to a defined urine/faeces and precipitated. After centrifugation, compound formula (B) and, where appropriate, known cleavage products of the compound formula (B) in the supernatant are determined quantitatively using a suitable LC/MS-MS method.
The measured urine and faeces concentrations are used to calculate parameters of the test substance and of the active ingredient compound (A) liberated there from, such as AUC and Cmax.
Acetonitrile containing IS is added to the study samples, calibration samples and QCs, and the protein is precipitated using acetonitrile. Vortexed and centrifuged and the supernatant is injected by LC-MS/MS (API 4000, AB Sciex). Chromatographic separation is carried out on an Shimadzu UFLC. The injection volume is 10 μl. The separation column used is a Phenomenex Gemini NX 4.6×5μ. 100 mm, adjusted to a temperature of 30° C. A binary mobile phase gradient at 800.mu·l/min is used (A: 0.1% formic acid in water, B: acetonitrile: API 4000, ESI Agilent 1100 column: Gemini Nx 100 mm×4.6 mm 5.μ; column temperature: 30° C.; eluent A: 0.1% formic acid in water, eluent B: acetonitrile; gradient: 0-2.5 min 95% A, 5% B; 2.5-2.6 min 5% A, 95% B; 2.6-4.2 min 95% A, 5% B; flow rate: 0.8 ml/min; ESI. Q1:464.098, Q3:144.255 The temperature of the Turbo V ion source is 500° C. The following MS instrument parameters are used: curtain gas 20 units, ion spray voltage 5 kV, gas 1 50 units gas 2 50 units, CAD gas 6 units. The substances are quantified by peak heights or areas using extracted ion chromatograms of specific MRM experiments.

[3] = after i.v. administration, at the first measurement point

For `O=CN(C[C@H]1CN(c2ccc(N3CCOCC3=O)cc2)C(=O)O1)C(=O)c1ccc(Cl)s1` [Compound formula B, 5-chloro-N-formyl-N-({(5S)-2-oxo-3-[4-(3-oxomorpholin-4-yl)phenyl]-1,3-oxazolidin-5-yl}methyl)thiophene-2-carboxamide], the “Observation: amount of test product” value (plasma protein) was “Not quantificable amount”, the “Observation: formed Rivaroxaban bound to plasma protein” value (plasma protein) was “found to be moderate-High” and the “plasma exposure (AUC, C max) as compared to Rivaroxaban” value [1] was “increased exposure”. For the same molecule, the “plasma exposure (AUC, C max) as compared to Rivaroxaban” value ([1]; listed as Test product) was “higher”, the “detectability of test substance in plasma” value [1, 3] was “no longer detectable in plasma” and the “Mean (ng/G) Faeces” value ([2]; IV 1 mg/Kg, rivaroxaban in faeces, 144 h) was “BLQ”. For the same molecule, the “Mean (ng) Urine” value ([2]; IV 1 mg/Kg, rivaroxaban in urine, 120 h) was “BLQ”, the “amount of rivaroxaban present in faeces as compared to rivaroxaban alone” value ([2]; Wistar rats) was “lesser amount of rivaroxaban present in faeces” and the “detectability of test substance in urine and faeces” value [2, 3] was “no longer detectable in urine and faeces”.

Reference: patent publication US9359341B2, “Aldehyde derivative of substitute oxazolidinones” (WANBURY LTD., priority 2012, dated 2016)
